Experimental data from the supplement of paper PMC10307832.

Assays:
Experiment in all cases: relative viability (nuclei count vs DMSO), 5 days (fraction); higher = more cells survive
[1] = compound: C[As](C)SC[C@H](NC(=O)CC[C@H](N)C(=O)O)C(=O)NCC(=O)O [Darinaparsin] + CC(=O)c1c(C)c2cnc(Nc3ccc(N4CCNCC4)cn3)nc2n(C2CCCC2)c1=O [Palbociclib] (partner 0.5 µM)
Outline: (§1)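 Lung cancer cell lines in 1536-well plates were dosed by pin tool the day after seeding, either with one drug alone or with a fixed anchor-drug dose plus five library-drug doses (not always all listed) in √10 steps. After 5 days, cells were fixed and their nuclei stained in one step (final 0.05% Triton X-100, 1% formaldehyde, 1 ug/ml Hoechst), then counted on 4× images. Relative viability is the nuclei count in treated wells divided by that in vehicle wells. Values are medians of duplicate plates.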

[2] = compound: C[As](C)SC[C@H](NC(=O)CC[C@H](N)C(=O)O)C(=O)NCC(=O)O [Darinaparsin] + CS(=O)(=O)N1CCN(Cc2cc3nc(-c4cccc5[nH]ncc45)nc(N4CCOCC4)c3s2)CC1 [Pictilisib] (partner 1 µM)
Outline: as §1

[3] = compound: C[As](C)SC[C@H](NC(=O)CC[C@H](N)C(=O)O)C(=O)NCC(=O)O [Darinaparsin] + Nc1ncn([C@H]2C[C@H](O)[C@@H](CO)O2)c(=O)n1 [Decitabine] (partner 2 µM)
Outline: as §1

[4] = compound: C1CC2=C(C1)C=C(C=C2)OC3=NC(=C4C(=N3)N(C=N4)CC5=CC=C(C=C5)C6=CC=CC=C6)N[C@@H](CC7=CC=CC=C7)CO [QS11] + CS(=O)(=O)CCNCc1ccc(-c2ccc3ncnc(Nc4ccc(OCc5cccc(F)c5)c(Cl)c4)c3c2)o1 [Lapatinib] (partner 2 µM)
Outline: as §1

Row | Cell Line | relative viability ([1]; first compound 0.08 µM) | relative viability ([1]; first compound 0.8 µM) | relative viability ([1]; first compound 2.53 µM) | relative viability ([1]; first compound 8 µM) | relative viability ([2]; first compound 0.08 µM) | relative viability ([2]; first compound 0.8 µM) | relative viability ([2]; first compound 2.53 µM) | relative viability ([2]; first compound 8 µM) | relative viability ([3]; first compound 0.08 µM) | relative viability ([3]; first compound 0.8 µM) | relative viability ([3]; first compound 2.53 µM) | relative viability ([3]; first compound 8 µM) | relative viability ([4]; first compound 0.08 µM) | relative viability ([4]; first compound 0.253 µM) | relative viability ([4]; first compound 0.8 µM) | relative viability ([4]; first compound 2.53 µM) | relative viability ([4]; first compound 8 µM)
1 | LU99A | 0.425 | 0.438 | 0.354 | 0.451 | 0.336 | 0.313 | 0.294 | 0.322 | 0.887 | 0.863 | 0.925 | 1.06 | 0.83 | 1.17 | 1.15 | 0.963 | 0.637
2 | NCI-H661 | 0.385 | 0.355 | 0.442 | 0.404 | 0.422 | 0.4 | 0.491 | 0.42 | 0.581 | 0.528 | 0.523 | 0.652 | 0.474 | 0.45 | 0.632 | 0.354 | 0.463
3 | PC-14 | 0.661 | 0.53 | 0.365 | 0.462 | 1.15 | 0.823 | 0.566 | 0.752 | 0.253 | 0.197 | 0.201 | 0.202 | 0.277 | 0.315 | 0.257 | 0.249 | 0.329
4 | SK-LU-1 | 0.381 | 0.338 | 0.339 | 0.347 | 0.661 | 0.58 | 0.502 | 0.789 | 0.637 | 0.587 | 0.495 | 0.759 | 0.704 | 0.868 | 0.963 | 0.803 | 0.838
5 | NCI-H2085 | 0.466 | 0.482 | 0.508 | 0.457 | 0.553 | 0.419 | 0.455 | 0.44 | 0.532 | 0.474 | 0.601 | 0.527 | 0.714 | 0.716 | 0.713 | 0.861 | 0.778
6 | NCI-H1299 | – | – | – | – | 1.03 | 0.882 | 0.751 | 0.808 | – | – | – | – | 1.02 | 0.933 | 0.807 | 0.917 | 0.712
7 | A549 | – | – | – | – | 0.601 | 0.517 | 0.344 | 0.653 | – | 0.209 | 0.229 | 0.291 | 1.04 | 1.14 | 0.621 | 0.886 | 0.764
8 | NCI-H1395 | 0.617 | 0.54 | 0.54 | 0.646 | 0.538 | 0.617 | 0.619 | 0.568 | 0.79 | 0.659 | 0.727 | 0.645 | – | 0.98 | 0.992 | 1.14 | 0.977
9 | NCI-H1666 | 0.666 | 0.673 | 0.634 | 0.678 | 0.418 | 0.458 | 0.454 | 0.53 | 0.679 | 0.74 | 0.766 | 0.786 | 0.607 | 0.398 | 0.542 | 0.578 | 0.42
10 | IA-LM | – | – | – | – | 0.414 | 0.408 | 0.949 | 0.313 | – | – | – | – | 1.13 | 1.02 | 0.513 | 0.589 | 0.596
11 | Calu-6 | – | – | – | – | 1.2 | 0.801 | 0.924 | 0.988 | – | – | – | – | 1.11 | 1.07 | 0.969 | 1.31 | 1.12
